Source: patent US9833497B2, “Human originated EGF domain proteins and use of the same” (CHENGDU SOURCEBIO LIMITED-LIABILITY COMPANY, priority 2013, dated 2017)

Legend:
Assay type in all cases: cell-based
Proteus vulgaris = assay: MIC against Gram-negative bacteria: Proteus vulgaris
Summary of the method: (§1)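 MIC, the lowest recombinant protein concentration giving no bacterial growth, found by two-fold serial dilution of human EGF-domain proteins in triplicate. Inoculum 5×10^5 CFU/mL in LB from cultures at McFarland 0.5; plates incubated at 37° C, 175 rpm shaking.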

E. coli BL21 = assay: MIC against Gram-negative bacteria: E. coli BL21
Summary of the method: as §1

Proteus mirabilis = assay: MIC against Gram-negative bacteria: Proteus mirabilis
Summary of the method: as §1

E. coli DH5α = assay: Antibacterial activity: MIC and growth curve against E. coli DH5α in 96-well plate; details: minimal inhibitory concentration against E. coli DH5α; 96-well plate, 5×10^5 CFU/mL, 37° C., judged after 8 h
Summary of the method: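 MIC taken as lowest protein level with no bacterial growth, tracked by A600 every 30 min during 37 °C, 175 rpm culture. Two-fold protein series 50-12.5 μg/mL final, triplicate wells, against 5×10^5 CFU/mL of LB-washed mid-log cells.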

Moraxella catarrhalis = assay: MIC against Gram-negative bacteria: Moraxella catarrhalis
Summary of the method: as §1

Serratia marcescens = assay: MIC against Gram-negative bacteria: Serratia marcescens
Summary of the method: as §1

Aeromonas hydrophila = assay: MIC against Gram-negative bacteria: Aeromonas hydrophila
Summary of the method: as §1

Citrobacter diversus = assay: MIC against Gram-negative bacteria: Citrobacter diversus
Summary of the method: as §1

Klebsiella pneumonia = assay: MIC against Gram-negative bacteria: Klebsiella pneumonia
Summary of the method: as §1

Pseudomonas aeruginosa = assay: MIC against Gram-negative bacteria: Pseudomonas aeruginosa
Summary of the method: as §1

Enterobacter cloacae = assay: MIC against Gram-negative bacteria: Enterobacter cloacae
Summary of the method: as §1

[1] = P. vulgaris, 10 h cultivation at 37° C., 5×10^5 CFU/mL
[2] = E. coli BL21, 10 h cultivation at 37° C., 5×10^5 CFU/mL
[3] = P. mirabilis, 10 h cultivation at 37° C., 5×10^5 CFU/mL
[4] = M. catarrhalis, 10 h cultivation at 37° C., 5×10^5 CFU/mL
[5] = S. marcescens, 10 h cultivation at 37° C., 5×10^5 CFU/mL
[6] = A. hydrophila, 10 h cultivation at 37° C., 5×10^5 CFU/mL
[7] = C. diversus, 10 h cultivation at 37° C., 5×10^5 CFU/mL
[8] = K. pneumonia, 10 h cultivation at 37° C., 5×10^5 CFU/mL
[9] = P. aeruginosa, 10 h cultivation at 37° C., 5×10^5 CFU/mL
[10] = E. cloacae, 10 h cultivation at 37° C., 5×10^5 CFU/mL
[11] = Proteus vulgaris, 5×10^5 CFU/mL, 10 h cultivation at 37° C.
[12] = E. coli BL21, 5×10^5 CFU/mL, 10 h cultivation at 37° C.
[13] = Proteus mirabilis, 5×10^5 CFU/mL, 10 h cultivation at 37° C.
[14] = Moraxella catarrhalis, 5×10^5 CFU/mL, 10 h cultivation at 37° C.
[15] = Serratia marcescens, 5×10^5 CFU/mL, 10 h cultivation at 37° C.
[16] = Aeromonas hydrophila, 5×10^5 CFU/mL, 10 h cultivation at 37° C.
[17] = Citrobacter diversus, 5×10^5 CFU/mL, 10 h cultivation at 37° C.
[18] = Klebsiella pneumonia, 5×10^5 CFU/mL, 10 h cultivation at 37° C.
[19] = Pseudomonas aeruginosa, 5×10^5 CFU/mL, 10 h cultivation at 37° C.
[20] = Enterobacter cloacae, 5×10^5 CFU/mL, 10 h cultivation at 37° C.
[21] = 96-well plate, 5×10^5 CFU/mL, 37° C., 10 h
[22] = 10 h cultivation at 37° C., 5×10^5 CFU/mL, two-fold serial dilution
[23] = Proteus vulgaris, 96-well plate, 5×10^5 CFU/mL, 37° C., 10 h
[24] = E. coli BL21, 96-well plate, 5×10^5 CFU/mL, 37° C., 10 h
[25] = Proteus mirabilis, 96-well plate, 5×10^5 CFU/mL, 37° C., 10 h
[26] = Moraxella catarrhalis, 96-well plate, 5×10^5 CFU/mL, 37° C., 10 h
[27] = Serratia marcescens, 96-well plate, 5×10^5 CFU/mL, 37° C., 10 h
[28] = Aeromonas hydrophila, 96-well plate, 5×10^5 CFU/mL, 37° C., 10 h
[29] = Citrobacter diversus, 96-well plate, 5×10^5 CFU/mL, 37° C., 10 h
[30] = Klebsiella pneumonia, 96-well plate, 5×10^5 CFU/mL, 37° C., 10 h
[31] = Pseudomonas aeruginosa, 96-well plate, 5×10^5 CFU/mL, 37° C., 10 h
[32] = Enterobacter cloacae, 96-well plate, 5×10^5 CFU/mL, 37° C., 10 h

PRT947 (NIDDCARGPHCLNGGQCMDRIGGYSCRCLPGFAGERCE; listed as Homo sapiens)
25 µg/mL: MIC (Proteus mirabilis; P. mirabilis, 10 h cultivation at 37° C.) | MIC (Citrobacter diversus; C. diversus, 10 h cultivation at 37° C.)
12.5 µg/mL: MIC (E. coli DH5α) | MIC (Moraxella catarrhalis; M. catarrhalis, 10 h cultivation at 37° C.) | MIC (Serratia marcescens; S. marcescens, 10 h cultivation at 37° C.) | MIC (Pseudomonas aeruginosa; P. aeruginosa, 10 h cultivation at 37° C.) | MIC (Enterobacter cloacae; E. cloacae, 10 h cultivation at 37° C.)
50 µg/mL: MIC (Proteus vulgaris; P. vulgaris, 10 h cultivation at 37° C.) | MIC (E. coli BL21; E. coli BL21, 10 h cultivation at 37° C.) | MIC (Aeromonas hydrophila; A. hydrophila, 10 h cultivation at 37° C.) | MIC (Klebsiella pneumonia; K. pneumonia, 10 h cultivation at 37° C.)

PRT250 (DVDECRTSITLCSHHCFNTAGSFTCGCPHDLVLGVDGRTCM; listed as Homo sapiens)
12.5 µg/mL: MIC (μg/mL) E. coli BL21 (E. coli BL21; [2]) | MIC (μg/mL) P. mirabilis (Proteus mirabilis; [3]) | MIC (E. coli DH5α) | MIC (μg/mL) S. marcescens (Serratia marcescens; [5]) | MIC (μg/mL) C. diversus (Citrobacter diversus; [7]) | MIC (μg/mL) K. pneumonia (Klebsiella pneumonia; [8]) | MIC (μg/mL) P. aeruginosa (Pseudomonas aeruginosa; [9]) | MIC (μg/mL) E. cloacae (Enterobacter cloacae; [10])
25 µg/mL: MIC (μg/mL) P. vulgaris (Proteus vulgaris; [1]) | MIC (μg/mL) M. catarrhalis (Moraxella catarrhalis; [4]) | MIC (μg/mL) A. hydrophila (Aeromonas hydrophila; [6])

PRT1406 (EADCIDPGCSNHGVCIHGECHCSPGWGGSNCE; listed as Homo sapiens)
50 µg/mL: MIC against P. vulgaris (Proteus vulgaris; [11]) | MIC against E. coli BL21 (E. coli BL21; [12]) | MIC against M. catarrhalis (Moraxella catarrhalis; [14]) | MIC against S. marcescens (Serratia marcescens; [15]) | MIC against A. hydrophila (Aeromonas hydrophila; [16])
25 µg/mL: MIC (E. coli DH5α) | MIC against P. aeruginosa (Pseudomonas aeruginosa; [19]) | MIC against E. cloacae (Enterobacter cloacae; [20])
12.5 µg/mL: MIC against P. mirabilis (Proteus mirabilis; [13]) | MIC against C. diversus (Citrobacter diversus; [17]) | MIC against K. pneumonia (Klebsiella pneumonia; [18])

PRT456 (DIDECADSEACGEARCKNLPGSYSCLCDEGFAYSSQEKACR; listed as Homo sapiens)
12.5 µg/mL: MIC against P. vulgaris (Proteus vulgaris; [21]) | MIC against E. coli BL21 (E. coli BL21; [21]) | MIC against M. catarrhalis (Moraxella catarrhalis; [21]) | MIC against A. hydrophila (Aeromonas hydrophila; [21]) | MIC against K. pneumonia (Klebsiella pneumonia; [21]) | MIC against E. cloacae (Enterobacter cloacae; [21])
50 µg/mL: MIC against P. mirabilis (Proteus mirabilis; [21]) | MIC against C. diversus (Citrobacter diversus; [21]) | MIC against P. aeruginosa (Pseudomonas aeruginosa; [21])
25 µg/mL: MIC (E. coli DH5α) | MIC against S. marcescens (Serratia marcescens; [21])

PRT520 (CRCNAGGSFSEVCHSQTGQCECRANVQGQRCDKCKAGTFGLQSARGCVP; listed as Homo sapiens)
50 µg/mL: MIC against M. catarrhalis (Moraxella catarrhalis; [21])
25 µg/mL: MIC against P. mirabilis (Proteus mirabilis; [21]) | MIC (E. coli DH5α) | MIC against S. marcescens (Serratia marcescens; [21]) | MIC against C. diversus (Citrobacter diversus; [21]) | MIC against P. aeruginosa (Pseudomonas aeruginosa; [21]) | MIC against E. cloacae (Enterobacter cloacae; [21])
12.5 µg/mL: MIC against P. vulgaris (Proteus vulgaris; [21]) | MIC against E. coli BL21 (E. coli BL21; [21]) | MIC against A. hydrophila (Aeromonas hydrophila; [21]) | MIC against K. pneumonia (Klebsiella pneumonia; [21])

PRT1486 (TVKSCDCLNGGSCVSDRNFSPGSGVYLCVCLPGFHGSLCE; listed as Homo sapiens)
12.5 µg/mL: MIC against P. vulgaris (Proteus vulgaris; [11]) | MIC against E. coli BL21 (E. coli BL21; [12]) | MIC against P. mirabilis (Proteus mirabilis; [13]) | MIC (E. coli DH5α) | MIC against S. marcescens (Serratia marcescens; [15]) | MIC against C. diversus (Citrobacter diversus; [17]) | MIC against E. cloacae (Enterobacter cloacae; [20])
25 µg/mL: MIC against M. catarrhalis (Moraxella catarrhalis; [14]) | MIC against A. hydrophila (Aeromonas hydrophila; [16]) | MIC against K. pneumonia (Klebsiella pneumonia; [18]) | MIC against P. aeruginosa (Pseudomonas aeruginosa; [19])

PRT1079 (DQCSLNNGGCSHNCSVAPGEGIVCSCPLGMELGPDNHTCQ; listed as Homo sapiens)
50 µg/mL: MIC P. vulgaris (Proteus vulgaris; [22]) | MIC P. mirabilis (Proteus mirabilis; [22]) | MIC (E. coli DH5α) | MIC C. diversus (Citrobacter diversus; [22]) | MIC P. aeruginosa (Pseudomonas aeruginosa; [22]) | MIC E. cloacae (Enterobacter cloacae; [22])
12.5 µg/mL: MIC E. coli BL21 (E. coli BL21; [22]) | MIC M. catarrhalis (Moraxella catarrhalis; [22]) | MIC S. marcescens (Serratia marcescens; [22]) | MIC A. hydrophila (Aeromonas hydrophila; [22]) | MIC K. pneumonia (Klebsiella pneumonia; [22])

PRT761 (RKDVCQAIDHGCEHICVNSDDSYTCECLEGFRLAEDGKRCR; listed as Homo sapiens)
50 µg/mL: MIC (μg/mL) P. mirabilis (Proteus mirabilis; [3]) | MIC (E. coli DH5α) | MIC (μg/mL) P. aeruginosa (Pseudomonas aeruginosa; [9]) | MIC (μg/mL) E. cloacae (Enterobacter cloacae; [10])
12.5 µg/mL: MIC (μg/mL) P. vulgaris (Proteus vulgaris; [1]) | MIC (μg/mL) E. coli BL21 (E. coli BL21; [2]) | MIC (μg/mL) C. diversus (Citrobacter diversus; [7]) | MIC (μg/mL) K. pneumonia (Klebsiella pneumonia; [8])
25 µg/mL: MIC (μg/mL) M. catarrhalis (Moraxella catarrhalis; [4]) | MIC (μg/mL) S. marcescens (Serratia marcescens; [5]) | MIC (μg/mL) A. hydrophila (Aeromonas hydrophila; [6])

PRT1236 (IGDGCIDMCSGHGRCIQGNCVCDEQWGGLYCD; listed as Homo sapiens)
25 µg/mL: MIC against E. coli BL21 (E. coli BL21; [24]) | MIC against P. mirabilis (Proteus mirabilis; [25]) | MIC against S. marcescens (Serratia marcescens; [27])
50 µg/mL: MIC (E. coli DH5α) | MIC against A. hydrophila (Aeromonas hydrophila; [28]) | MIC against K. pneumonia (Klebsiella pneumonia; [30])
12.5 µg/mL: MIC against P. vulgaris (Proteus vulgaris; [23]) | MIC against M. catarrhalis (Moraxella catarrhalis; [26]) | MIC against C. diversus (Citrobacter diversus; [29]) | MIC against P. aeruginosa (Pseudomonas aeruginosa; [31]) | MIC against E. cloacae (Enterobacter cloacae; [32])

PRT1278 (DIDECRLNNGGCDHICRNTVGSFECSCKKGYKLLINERNCQ; listed as Homo sapiens)
12.5 µg/mL: MIC against P. vulgaris (Proteus vulgaris; [23]) | MIC against E. coli BL21 (E. coli BL21; [24]) | MIC against P. mirabilis (Proteus mirabilis; [25]) | MIC against M. catarrhalis (Moraxella catarrhalis; [26]) | MIC against S. marcescens (Serratia marcescens; [27]) | MIC against A. hydrophila (Aeromonas hydrophila; [28]) | MIC against C. diversus (Citrobacter diversus; [29]) | MIC against K. pneumonia (Klebsiella pneumonia; [30]) | MIC against P. aeruginosa (Pseudomonas aeruginosa; [31]) | MIC against E. cloacae (Enterobacter cloacae; [32])
25 µg/mL: MIC (E. coli DH5α)

PRT1212 (DIDECSGNPCLHGALCENTHGSYHCNCSHEYRGRHCE; listed as Homo sapiens)
25 µg/mL: MIC against P. vulgaris (Proteus vulgaris; [23]) | MIC against E. coli BL21 (E. coli BL21; [24]) | MIC against M. catarrhalis (Moraxella catarrhalis; [26]) | MIC against A. hydrophila (Aeromonas hydrophila; [28]) | MIC against E. cloacae (Enterobacter cloacae; [32])
50 µg/mL: MIC against P. mirabilis (Proteus mirabilis; [25]) | MIC (E. coli DH5α) | MIC against K. pneumonia (Klebsiella pneumonia; [30])
12.5 µg/mL: MIC against S. marcescens (Serratia marcescens; [27]) | MIC against C. diversus (Citrobacter diversus; [29]) | MIC against P. aeruginosa (Pseudomonas aeruginosa; [31])

PRT1293 (KLDFCAQDLNPCQHDSKCILTPKGFKCDCTPGYVGEHCD; listed as Homo sapiens)
12.5 µg/mL: MIC against E. coli BL21 (E. coli BL21; [24]) | MIC against P. mirabilis (Proteus mirabilis; [25]) | MIC against M. catarrhalis (Moraxella catarrhalis; [26]) | MIC against S. marcescens (Serratia marcescens; [27]) | MIC against C. diversus (Citrobacter diversus; [29]) | MIC against E. cloacae (Enterobacter cloacae; [32])
25 µg/mL: MIC (E. coli DH5α) | MIC against P. aeruginosa (Pseudomonas aeruginosa; [31])
50 µg/mL: MIC against P. vulgaris (Proteus vulgaris; [23]) | MIC against A. hydrophila (Aeromonas hydrophila; [28]) | MIC against K. pneumonia (Klebsiella pneumonia; [30])
